Data set [1] can be described thus: Pharmacokinetic studies of 4-CNAB after oral administration in mice. The class given is in vivo.
The subject of data set [2] is primary molecular targets. The data set is described as follows: Receptor binding screening assays.
A short description of a further data set: Genotoxicity studies. Particulars: four genotoxicity studies.
Data set [3] is described as follows: 14-day oral repeated dose toxicity study in monkeys. The settings on record: rhesus monkey, in vivo, 14 days.
Protocol: In toxicology studies, 4-CNAB doses from 400 mg to 2000 mg were evaluated.
A short description of data set [4]: Pharmacokinetic studies of 4-CNAB after oral administration in monkeys. The class given is in vivo.
Data set [5] can be described thus: Open-label single-dose crossover study of oral Insulin/4-CNAB in type 2 diabetic subjects (fasting / standard meal). The class given is in vivo, human. From the text:
In the first part of the study, twenty-four human diabetic subjects (patients) of age 35-70 years, with elevated fasting blood glucose levels but in otherwise good general health on the basis of a medical history, physical examination and clinical laboratory studies, participated in the study and were studied in the overnight-fasted state on two occasions, separated by an interval of at least 7 days.

Data set [6] in a line: Pharmacokinetic studies of 4-CNAB after oral administration in rats. The class given is in vivo.

We go through one molecule from patent publication US7384914B2 (Emisphere Technologies, Inc., priority 2003, dated 2008).

Consider `O=C(O)CCCNC(=O)c1ccc(Cl)cc1O` [4-CNAB, monosodium N-(4-chlorosalicyloyl)-4-aminobutyrate], for which the “4-CNAB absorption following oral administration” value in data set [1], in data set [4] and in data set [6] was “absorbed rapidly” in each case. Moreover, the “activity in primary molecular targets in receptor binding screening assays” value in data set [2] is given as “did not demonstrate potential activity”. In “Genotoxicity studies”, the genotoxicity findings entry is given as “no positive findings”. For the same molecule, the “highest proposed dose of 2000 mg 4-CNAB in man (<30 mg/kg) lower than the NOAEL in monkeys” value in data set [3] is given as 12-16 fold. Also, in data set [5], the “tolerability of 4-CNAB” value is given as “well tolerated”. In addition, in data set [5] (oral capsules), the “time of 4-CNAB concentration peak post administration” value was “about 30 minutes”.
